We go through one compound from patent US12569473B2, “Methods to treat respiratory infection utilizing castanospermine analogs” (60 Degrees Pharmaceuticals, Inc., priority 2022, dated 2026).

Series [1] can be described thus: Pharmacokinetic simulations using CELADEN study parameters. Further details: species or system human. As to conditions: linear extrapolation. On the procedure: It is known that a steady state minimum castanospermine concentration of 400 nanograms/ml is associated with a 50 mg/kg BID dose in mice and that the antiviral effect of celgosivir in vivo seems to be correlated with the minimum steady state concentration of castanospermine (Watanabe et al). […] International Publication No. WO 2014/143907 discloses pharmacokinetic parameters for castanospermine for the CELADEN study. […] Extrapolating linearly, therefore, the minimum protective dose (achieving 400 nanograms/ml steady state minimum) is approximately 40 mg every 6 h, 75 mg every 8 h and 225 mg every 12 h. Further, WO 2014/143907 discloses that the CELADEN study regimen produce a steady state maximum castanospermine concentration of 5100 nanograms/ml. […] The FDA has published generic scaling factors to adjust mg/kg dosing in animals to mg/kg dosing in humans. Generically for mice, that scaling factor is 12. Therefore, 50 mg/kg BID is equivalent to a dose of 4.2 mg/kg BID in humans, which for a 60 kg human is equivalent to 250 mg. The same dose administered three or four times daily is equivalent to 167 mg and 125 mg and 2.8 and 2.1 mg/kg respectively. In a 60 kg human, the maximum single dose is 6.7 mg/kg, and the maximum daily dose is 10 mg/kg.

Series [2] relates to embryonic African green monkey kidney cells (MA-104). Kind of series: Cytotoxicity, visual examination, MA-104 cells. It counts as cell-based. The note with it: all concentrations tested (0.3-300 microM); text summary of the cytotoxicity assays. The protocol: (§1) The efficacy of celgosivir and castanospermine against RSV and human rhinovirus-14 was assessed in vitro. For RSV studies, embryonic African green monkey kidney cells (MA-104) were grown in minimal essential medium (MEM) supplemented with 0.1% NaHCO3 and 10% fetal bovine serum. When performing antiviral assays, serum was reduced to 2% and […] gentamicin was added to the medium. RSV strain A2 was used for the studies. For rhinovirus studies, the HeLa Ohio cell line was used in place of MA-104 cells.
(§2) CPE inhibition assays with visual quantification of antiviral activity and cytotoxicity were performed as described by Sidwell and Huffman (1971) with slight modifications. Sidwell, R. W. and Huffman, J. H. (1971) Use of disposable micro-tissue culture plates for antiviral and interferon induction studies. Appl. Microbiol. 22, […]. […] All compounds were assayed for virus inhibition in quadruplicate and for cytotoxicity in duplicate. For rhinovirus studies, Pirodavir was applied at a concentration of 0.001-1 μg/ml as the positive control compound. For RSV studies, the positive control compound was Ribavirin applied at a concentration of 0.5-500 μg/ml. For each compound, two wells were set aside as uninfected, untreated cell controls per test and four wells per test received virus only and represented controls for virus replication. […] For all CPE-based assays, the 50% effective concentration (EC50) was calculated by regression analysis using the means of the CPE ratings at each concentration of compound. Morphological changes due to compound cytotoxicity were graded on a scale of 0-5; grade 5 was defined as 100% cytotoxicity. The 50% cytotoxic dose (IC50) was calculated by regression analysis. A selective index (S.I.) was calculated for each compound (SI.=(IC50)/(EC50)).

Series [3] can be described thus: Cytotoxicity, visual examination, MA-104 cells. The note with it: African green monkey, MA-104 cells (embryonic African green monkey kidney), unit inferred, read-out: CC50. The series is classed as cell-based, African green monkey. The protocol: as §1, §2
Series [4] is described as follows: Cytotoxicity, neutral red assay, MA-104 cells. The series is classed as cell-based. As to conditions: African green monkey, MA-104 cells (embryonic African green monkey kidney), compounds tested at 0.3, 3, 30 and 300 microM, unit inferred. The protocol:
as §1
(§3) CPE inhibition assays with visual quantification of antiviral activity and cytotoxicity were performed as described by Sidwell and Huffman (1971) with slight modifications. Sidwell, R. W. and Huffman, J. H. (1971) Use of disposable micro-tissue culture plates for antiviral and interferon induction studies. Appl. Microbiol. 22, […]. […] All compounds were assayed for virus inhibition in quadruplicate and for cytotoxicity in duplicate. For rhinovirus studies, Pirodavir was applied at a concentration of 0.001-1 μg/ml as the positive control compound. For RSV studies, the positive control compound was Ribavirin applied at a concentration of 0.5-500 μg/ml. For each compound, two wells were set aside as uninfected, untreated cell controls per test and four wells per test received virus only and represented controls for virus replication. […] A selective index (S.I.) was calculated for each compound (SI.=(IC50)/(EC50)).
(§4) Neutral red assay of CPE inhibition and cytotoxicity was performed by a modified method as described by Cavenaugh et al. (1990). […] Briefly, medium was removed from each well of a plate scored for CPE from the visual CPE inhibition assay, 0.2 ml of neutral red (0.034% in PSS) was added to each of the wells of that plate and the plate incubated for 2 h at 37° C. in the dark. […] Absorbances at 540 and 450 nm were read with a microplate reader (Bio-Tek EL 1309; Bio-Tek Instruments). […] Absorbance values were expressed as percentages of untreated controls and EC50 and IC50 values were calculated by regression analysis

In a further series the test system is RSV strain A2. The experiment in a line: Neutral red assay of CPE inhibition, RSV. The note with it: human respiratory syncytial virus, MA104, MA-104 cells, compounds tested at 0.3, 3, 30 and 300 microM, unit inferred. It counts as cell-based. The protocol: as §1, §3, §4
The conditions of series [5]: literature (Sorbera et al); cited from earlier work.

Structures can show the parent of a compound that is named as a salt.

Consider `CCCC(=O)O[C@H]1CN2CC[C@H](O)[C@@H]2[C@@H](O)[C@@H]1O` [Celgosivir HCL], for which the “minimum protective dose (achieving 400 nanograms/ml steady state minimum)” value in series [1] (every 6 h) is recorded as “approximately 40 mg”; in series [1] (every 8 h), roughly 75 mg; in series [1] (every 12 h), roughly 225 mg. Moreover, the “safety in vitro (CC50 above the highest concentration tested)” value in series [2] was “safe at all concentrations tested”. The CC50 at 6 days in series [3] (RSV studies, text summary over visual and neutral red assays) is no less than 300 µM; in series [3] (visual examination, MA-104 cells, compounds tested at 0.3, 3, 30 and 300 microM), greater than 300 µM; in series [4], greater than 300 µM. The compound further came in with a half-maximal effective concentration (EC50) in the series with RSV strain A2 of 34 µM. In addition, the “pharmacokinetics, dose linearity” value in series [5] is “linear with dose over the tolerated dose range”.
